Data on eight compounds can be found in article PMC9218685, “Legume Plant Peptides as Sources of Novel Antimicrobial Molecules Against Human Pathogens” (Frontiers in Molecular Biosciences, 2022).

Holding throughout (format): cell-based
The test system of experiment [1] is Pseudomonas aeruginosa (ATCC 27853). Particulars: for MBC Pseudomonas aeruginosa: ATCC 27853, 3 h; for Activity against P. aeruginosa: 3 h, ~10^7 log phase bacteria, peptides ≤25 µM. The source says:
(§1) The following pathogenic bacterial strains were used: The Gram-positive Enterococcus faecalis (ATCC 29212), Staphylococcus aureus (HNCMO112011), Listeria monocytogenes (ATCC 19111) and the Gram-negative Pseudomonas aeruginosa (ATCC 27853), Escherichia coli (ATCC 8739), Salmonella enterica (ATCC 13076), Klebsiella pneumoniae (NCTC 13440), Acinetobacter baumannii (ATCC 17978) obtained from the ATCC (United States) and NCTC (National Collection of Type Cultures–England). For the antifungal experiment the Candida albicans W01 strain ([Ördögh et al., 2014]) was used. Antimicrobial activities of peptides against ∼10^7 log phase bacteria were tested in Potassium-Phosphate Buffer (PPB, pH 7.4) as described by [Jenei et al. (2020)] while anti-Candida assays were done according to [Szerencsés et al. (2021)]. The two-fold dilution series of peptides ranged from 25 μM to 0.125 μM, while that of the antibiotics ampicillin (Merck) and miconazole (Duchefa Biochemie) from […] to 0.1 μM. The lowest concentration of the antimicrobial agents, which completely eliminated viable bacteria or C. albicans were considered as the minimal bactericidal concentration (MBC) and minimal fungicidal concentration (MFC).
(§2) The minimal bactericidal concentrations (MBCs) were determined after 3 h of treatment of ∼10^7 log phase bacteria with 2-fold serial dilution of peptides from 25 µM to 0.8 µM. Only 25 of the 50 cationic M. truncatula peptides had activity at ≤25 µM (Supplementary Table S1). […] Three peptides were only active against two bacterial strains; NCR649 against L. monocytogenes and A. baumannii, NCR281 against L. monocytogenes and P. aeruginosa and NCR350 against A. baumannii and P. aeruginosa. […] None of the anionic NCR peptides affected the survival of the tested bacterial strains.

Experiment [2] has as its system Enterococcus faecalis (ATCC 29212). Conditions: for Ability to kill E. faecalis: 3 h, ~10^7 log phase bacteria, peptides ≤25 µM.
Source text: as §1, §2

The test system of experiment [3] is Escherichia coli (ATCC 8739). Particulars: for MBC Escherichia coli: ATCC 8739, 3 h.
Source text: as §1, §2

The test system of experiment [4] is Listeria monocytogenes (ATCC 19111). Conditions: for MBC Listeria monocytogenes: ATCC 19111, 3 h; for Activity against L. monocytogenes: 3 h, ~10^7 log phase bacteria, peptides ≤25 µM.
Source text: as §1, §2

For experiment [5], the system named is E. coli, S. enteritidis, P. aeruginosa, L. monocytogenes, S. aureus, E. faecalis, K. pneumoniae and A. baumannii. Briefly: Antimicrobial activity assay, spectrum over the eight tested pathogenic bacteria. Conditions: 3 h treatment of ~10^7 log phase bacteria, peptides 25 to 0.8 µM; active = MBC ≤25 µM.
Source text: as §1
We investigated the antimicrobial activity of 78 NCR peptides from M. truncatula and 12 NCRs from other IRLC legumes as well as their shorter derivatives against E. coli, S. enteritidis, P. aeruginosa, L. monocytogenes, S. aureus, E. faecalis, K. pneumoniae and A. baumannii (Supplementary Table S1). In the selection of the M. truncatula peptides, we considered their symbiotic expression levels but also their physicochemical properties. The antimicrobial activity of NCRs has so far been attributed to cationic peptides, with the exception of one anionic peptide. To investigate whether other anionic NCRs are antimicrobial, in addition to the cationic peptides, neutral and anionic NCRs were also included covering a broad range of peptides with different net charges (NC: from 7.8 to −10.2) and isoelectric points (pI: from 10.69 to 2.95). 50 peptides had positive net charge and pI > 7.0, while 28 peptides had negative net charge and pI < 7.0 (Supplementary Table S1A). Of the other legumes, only cationic NCR peptides were studied (Supplementary Table S1B).
as §2

The subject of experiment [6] is Candida albicans W01 strain. Briefly: microbe, parasite or virus in culture. Particulars: Candida albicans, W01STRAIN; C. albicans W01, two-fold dilution series; lowest concentration completely eliminating viable C. albicans; read-out: MFC, minimal fungicidal concentration against C. albicans.
Source text: as §1

Experiment [7] has as its system Acinetobacter baumannii (ATCC 17978). Briefly: microbe, parasite or virus in culture. Particulars: for Activity against A. baumannii: 3 h, ~10^7 log phase bacteria, peptides ≤25 µM.
Source text: as §1, §2

Converted amounts (≈) assume the structure as drawn. “Also recorded” adds a separate entry of the source. Ends that are not written are not given here. Peptide text beside a SMILES is read from it.

In the case of `CC[C@H](C)[C@H](NC(=O)CNC(=O)[C@H](CCC(N)=O)NC(=O)[C@@H](NC(=O)[C@H](CS)NC(=O)[C@H](CCCNC(=N)N)NC(=O)[C@H](CC(C)C)NC(=O)[C@H](CCCNC(=N)N)NC(=O)[C@H](CCCNC(=N)N)NC(=O)[C@H](CC(N)=O)NC(=O)[C@@H](NC(=O)[C@H](Cc1ccc(O)cc1)NC(=O)[C@H](CCSC)NC(=O)[C@@H]1CCCN1C(=O)[C@H](Cc1ccc(O)cc1)NC(=O)[C@H](CC(C)C)NC(=O)[C@@H](NC(=O)[C@H](CC(N)=O)NC(=O)[C@H](CS)NC(=O)[C@H](CC(=O)O)NC(=O)[C@@H](NC(=O)[C@H](CC(=O)O)NC(=O)[C@H](CO)NC(=O)[C@@H](NC(=O)[C@H](CS)NC(=O)[C@H](CCC(=O)O)NC(=O)[C@@H](N)CO)[C@@H](C)CC)[C@@H](C)O)C(C)C)[C@@H](C)CC)[C@@H](C)CC)C(=O)N[C@@H](CS)C(=O)N[C@@H](Cc1c[nH]cn1)C(=O)N[C@H](C(=O)N[C@H](C(=O)N[C@H](C(=O)N[C@@H](C)C(=O)N[C@@H](CCCNC(=N)N)C(=O)N[C@@H](CCCNC(=N)N)C(=O)N[C@@H](CCCNC(=N)N)C(=O)O)[C@@H](C)O)[C@@H](C)O)[C@@H](C)O` [NCR299] (H-SECISDTDCNVLYPMYINRRLRCIQGICHTTTARRR-OH; N-terminus assumed), the “MBC Pseudomonas aeruginosa” value in experiment [1] turned out to be 3.125 µM (≈ 13.3 µg/mL). Also, in experiment [2], the “Ability to kill E. faecalis” value is listed as “able to kill”. In addition, in experiment [2] (ATCC 29212, 3 h), the “MBC Enterococcus faecalis” value turned out to be 12.5 µM (≈ 53.2 µg/mL). For the same compound, in experiment [3], the “MBC Escherichia coli” value turned out to be 12.5 µM (≈ 53.2 µg/mL). The “MBC Listeria monocytogenes” value in experiment [4] worked out at 12.5 µM (≈ 53.2 µg/mL). In addition, the “Antibacterial spectrum over the eight tested bacterial strains” value in experiment [5] is on record as “effective against five or four strains”.
“GRYTTPWCVRDIDCPKEKCKHPFKPRCLTHSCVCRLWGSQDVI-OH (cysteines drawn unpaired) [NCR281]”: in experiment [1], the “Activity against P. aeruginosa” value is “active”. The “Activity against L. monocytogenes” value in experiment [4] is “active”.
With `Clc1ccc(COC(Cn2ccnc2)c2ccc(Cl)cc2Cl)c(Cl)c1` (stereo not shown) [Miconazole, reference compound], the MFC in experiment [6] amounted to 50600 µM (≈ 21000 µg/mL).
On to `CC(C)C[C@H](NC(=O)[C@H](CS)NC(=O)[C@H](CCCCN)NC(=O)CNC(=O)[C@@H](N)Cc1ccccc1)C(=O)N[C@@H](CCCCN)C(=O)N[C@@H](CC(C)C)C(=O)N[C@@H](CCCCN)C(=O)N[C@@H](CS)C(=O)N[C@H](C(N)=O)C(C)C` [GoNCR308 (16-25)] (H-FGKCLKLKCV-NH2; N-terminus assumed), for which the “MBC Pseudomonas aeruginosa” value in experiment [1] amounted to 12.5 µM (≈ 14.2 µg/mL). For the same compound, the “MBC Escherichia coli” value in experiment [3] came out at 25 µM (≈ 28.4 µg/mL). In experiment [4], the “MBC Listeria monocytogenes” value was found to be 12.5 µM (≈ 14.2 µg/mL).
Consider `CC[C@H](C)[C@H](NC(=O)[C@H](Cc1ccc(O)cc1)NC(=O)[C@H](C)N)C(=O)N[C@@H](CCC(=O)O)C(=O)N[C@@H](CS)C(=O)N[C@@H](CCC(=O)O)C(=O)N[C@H](C(=O)N[C@@H](CC(=O)O)C(=O)N[C@@H](CC(=O)O)C(=O)N[C@@H](CC(=O)O)C(=O)N[C@@H](CS)C(=O)N1CCC[C@H]1C(=O)N[C@@H](CCCCN)C(=O)N1CCC[C@H]1C(=O)N[C@@H](CCSC)C(=O)N[C@@H](CCCCN)C(=O)N[C@@H](CC(N)=O)C(=O)N[C@@H](CO)C(=O)N[C@@H](Cc1c[nH]cn1)C(=O)N1CCC[C@H]1C(=O)N[C@@H](CC(=O)O)C(=O)N[C@H](C(=O)N[C@@H](Cc1ccc(O)cc1)C(=O)N[C@@H](Cc1ccc(O)cc1)C(=O)N[C@@H](CCCCN)C(=O)N[C@@H](CS)C(=O)N[C@H](C(=O)N[C@@H](CCCCN)C(=O)N[C@@H](Cc1c[nH]cn1)C(=O)N[C@@H](CCCNC(=N)N)C(=O)N[C@@H](CS)C(=O)N[C@@H](CCC(N)=O)C(=O)N[C@@H](Cc1c[nH]c2ccccc12)C(=O)N[C@@H](C)C(=O)N[C@@H](Cc1c[nH]c2ccccc12)C(=O)N[C@@H](CCCCN)C(=O)O)C(C)C)[C@@H](C)O)C(C)C` [NCR147] (H-AYIECEVDDDCPKPMKNSHPDTYYKCVKHRCQWAWK-OH; N-terminus assumed), for which, in experiment [1], the “Activity against P. aeruginosa” value is “showed activity” and the “MBC Pseudomonas aeruginosa” value is recorded as 12.5 µM (≈ 54.9 µg/mL). In addition, the “Activity against E. coli” value in experiment [3] (3 h, ~10^7 log phase bacteria, peptides ≤25 µM) is “showed activity”. Moreover, the “MBC Escherichia coli” value in experiment [3] amounted to 25 µM (≈ 110 µg/mL). In experiment [4], the “Activity against L. monocytogenes” value is “showed activity” and the “MBC Listeria monocytogenes” value was found to be 12.5 µM (≈ 54.9 µg/mL). Besides, in experiment [7], the “Activity against A. baumannii” value is “showed activity”. Besides, in experiment [7] (ATCC 17978, 3 h), the “MBC Acinetobacter baumannii” value is recorded as 3.125 µM (≈ 13.7 µg/mL).
As for `CC[C@H](C)[C@H](NC(=O)[C@@H]1CCCN1C(=O)[C@H](CC(C)C)NC(=O)[C@H](CS)NC(=O)[C@H](CCCCN)NC(=O)[C@H](CS)NC(=O)[C@H](CCSC)NC(=O)[C@H](CCCNC(=N)N)NC(=O)[C@H](CCCNC(=N)N)NC(=O)[C@@H](NC(=O)[C@H](CS)NC(=O)[C@H](CCCNC(=N)N)NC(=O)[C@@H]1CCCN1C(=O)[C@H](CCC(=O)O)NC(=O)[C@H](CCSC)NC(=O)CNC(=O)[C@@H]1CCCN1C(=O)[C@@H]1CCCN1C(=O)[C@H](CS)NC(=O)[C@H](CCSC)NC(=O)[C@H](Cc1c[nH]cn1)NC(=O)[C@@H]1CCCN1C(=O)[C@@H]1CCCN1C(=O)[C@H](CS)NC(=O)[C@H](Cc1c[nH]cn1)NC(=O)[C@H](CO)NC(=O)[C@H](CC(=O)O)NC(=O)[C@@H](NC(=O)[C@@H](NC(=O)[C@H](CS)NC(=O)[C@H](CC(C)C)NC(=O)[C@@H](N)Cc1ccc(O)cc1)C(C)C)[C@@H](C)O)C(C)C)C(=O)NCC(=O)N[C@@H](Cc1c[nH]c2ccccc12)C(=O)N[C@@H](CCCNC(=N)N)C(=O)N[C@@H](CCCCN)C(=O)N[C@@H](Cc1ccc(O)cc1)C(=O)N[C@@H](Cc1ccccc1)C(=O)N[C@H](C(=O)N1CCC[C@H]1C(=O)O)C(C)C` [NCR336] (H-YLCVTDSHCPPHMCPPGMEPRCVRRMCKCLPIGWRKYFVP-OH; N-terminus assumed), the “Ability to kill E. faecalis” value in experiment [2] is on record as “able to kill”. Moreover, the “Antibacterial spectrum over the eight tested bacterial strains” value in experiment [5] was “capable of killing all tested bacteria; also recorded: active against all the eight tested pathogens”.
Regarding `CC(C)C[C@H](NC(=O)[C@H](CS)NC(=O)[C@@H](NC(=O)[C@H](CS)NC(=O)[C@H](CCCCN)NC(=O)[C@@H](NC(=O)[C@@H](NC(=O)[C@H](CCC(=O)O)NC(=O)[C@@H]1CCCN1C(=O)[C@@H]1CCCN1C(=O)[C@@H](NC(=O)[C@H](CS)NC(=O)[C@H](CCCCN)NC(=O)[C@H](CC(C)C)NC(=O)[C@@H](NC(=O)[C@@H](N)CCCCN)C(C)C)[C@@H](C)O)C(C)C)C(C)C)[C@@H](C)O)C(=O)N[C@@H](CS)C(=O)NCC(=O)N[C@@H](CCCCN)C(=O)N[C@@H](CCCNC(=N)N)C(=O)N[C@H](C(=O)N[C@@H](CC(C)C)C(=O)N[C@@H](Cc1ccc(O)cc1)C(=O)O)[C@@H](C)O` [NCR649] (H-KVLKCTPPEVVKCTCLCGKRTLY-OH; N-terminus assumed), the “Activity against L. monocytogenes” value in experiment [4] is on record as “active”. The “Activity against A. baumannii” value in experiment [7] is listed as “active”.
For `CC[C@H](C)[C@H](N)C(=O)N[C@H](C(=O)N[C@H](C(=O)N[C@@H](CC(N)=O)C(=O)N[C@@H](CCCNC(=N)N)C(=O)N[C@@H](CCCNC(=N)N)C(=O)N[C@@H](CS)C(=O)N[C@@H](CCCCN)C(=O)N[C@@H](CO)C(=O)N[C@@H](Cc1c[nH]cn1)C(=O)N[C@@H](CCCCN)C(=O)N[C@@H](CC(=O)O)C(=O)N[C@@H](CS)C(=O)N1CCC[C@H]1C(=O)NCC(=O)N[C@@H](Cc1ccccc1)C(=O)NCC(=O)N[C@@H](CCCCN)C(=O)N[C@@H](CS)C(=O)N[C@@H](CC(C)C)C(=O)N[C@@H](CCCCN)C(=O)N[C@@H](CC(C)C)C(=O)N[C@@H](CCCCN)C(=O)N[C@@H](CS)C(=O)N[C@H](C(=O)N[C@@H](Cc1ccc(O)cc1)C(=O)N[C@H](C(=O)N1CCC[C@H]1C(=O)N[C@@H](CCCCN)C(=O)N[C@@H](CCCNC(=N)N)C(=O)O)[C@@H](C)O)C(C)C)[C@@H](C)O)[C@@H](C)CC` [GoNCR308] (H-IITNRRCKSHKDCPGFGKCLKLKCVYTPKR-OH; N-terminus assumed), in experiment [2], the “Ability to kill E. faecalis” value is on record as “able to kill”.
